Data taken from paper PMC6505227, “Exploration of carbohydrate binding behavior and anti-proliferative activities of Arisaema tortuosum lectin” (BMC Molecular Biology, 2019).

T1: Arisaema tortuosum lectin (ATL) (Arisaema tortuosum, UniProt A0A1L6CAS7)
T1 construct: 257-residue precursor, predicted signal peptide 1-23, two domains (DOM1 N26-P132, DOM2 N146-A254) separated by processing; 52 kDa heterotetramer 2 x (A + B)
T1 sequence (A0A1L6CAS7 24-257): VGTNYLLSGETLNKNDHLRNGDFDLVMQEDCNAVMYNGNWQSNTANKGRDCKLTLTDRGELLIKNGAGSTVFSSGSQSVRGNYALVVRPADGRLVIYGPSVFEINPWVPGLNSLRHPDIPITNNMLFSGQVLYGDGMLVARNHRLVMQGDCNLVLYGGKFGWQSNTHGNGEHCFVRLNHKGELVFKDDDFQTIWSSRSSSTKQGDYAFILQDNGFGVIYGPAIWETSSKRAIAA


Tests used:
[1] = target: T1, Arisaema tortuosum lectin (ATL); assay: CFG glycan microarray v5.[…], biotinylated lectin, fluorescence; format: binding; settings: glycan immobilised via spacer; mean over 10, 1.0 and 0.1 µg/ml lectin
[2] = target: Arisaema tortuosum lectin (Arisaema tortuosum); assay: ITC; MicroCal iTC200, 18 injections, data fitted to a one site model; ATL dialysed in PBS; which partner was in the syringe is not stated
[3] = target: Arisaema tortuosum lectin (Arisaema tortuosum); assay: ITC; MicroCal iTC200, 18 injections, fitted with a one site model; ATL dialysed against PBS; set-up as described in ref. 21; temperature not stated

Molecule	Avg. rank^a [1]	further results
Fuca1-2Galb1-4 GlcNAcb1-2Mana1-6(Fuca1-2Galb1-4GlcNAcb1-2(Fuca1-2Galb1-4GlcNAcb1-4)Mana1-3)Manb1-4GlcNAcb1-4GlcNAcb-Sp12 [compound 446]	25.9 average rank (from RFU)	–
Fuca1-2Galb1-4(Fuca1-3)GlcNAcb1-2Mana1-6(Fuca1-2Galb1-4(Fuca1-3)GlcNAcb1-2Mana1-3)Manb1-4GlcNAcb1-4(Fuca1-6)GlcNAcb-Sp24 [compound 473]	20.0 average rank (from RFU)	–
Gala1-4Galb1-3GlcNAcb1-2Mana1-6(Gala1-4Galb1-3GlcNAcb1-2Mana1-3)Manb1-4GlcNAcb1-4GlcNAcb-Sp19 [compound 404]	70.8 average rank (from RFU)	–
Galb1-3GlcNAcb1-2Mana1-6(Galb1-3GlcNAcb1-2Mana1-3)Manb1-4GlcNAcb1-4(Fuca1-6)GlcNAcb-Sp22 [compound 355]	24.1 average rank (from RFU)	–
Galb1-3GlcNAcb1-2Mana1-6(Galb1-3GlcNAcb1-2Mana1-3)Manb1-4GlcNAcb1-4GlcNAcb-Sp19 [compound 325]	57.7 average rank (from RFU)	–
Galb1-4GlcNAcb1-2Mana1-6(Galb1-4GlcNAcb1-4(Galb1-4GlcNAcb1-2)Mana1-3)Manb1-4GlcNAcb1-4GlcNAc-Sp21 [compound 370]	24.5 average rank (from RFU)	–
Galb1-4GlcNAcb1-2Mana1-6(GlcNAcb1-2Mana1-3)Manb1-4GlcNAcb1-4GlcNAc-Sp12 [compound 399]	13.8 average rank (from RFU)	–
Galb1-4GlcNAcb1-2Mana1-6(Mana1-3)Manb1-4GlcNAcb1-4GlcNAcb-Sp12 [compound 365]	59.9 average rank (from RFU)	–
Galb1-4GlcNAcb1-3Galb1-4GlcNAcb1-2Mana1-6(Galb1-4GlcNAcb1-3Galb1-4GlcNAcb1-2Mana1-3)Manb1-4GlcNAcb1-4(Fuca1-6)GlcNAcb-Sp24 [compound 576]	20.9 average rank (from RFU)	–
Galb1-4GlcNAcb1-6(Galb1-4GlcNAcb1-2)Mana1-6(Galb1-4GlcNAcb1-4(Galb1-4GlcNAcb1-2)Mana1-3)Manb1-4GlcNAcb1-4GlcNAcb-Sp21 [compound 388]	51.9 average rank (from RFU)	–
GlcNAcb1-2Mana1-6(GlcNAcb1-2Mana1-3)Manb1-4GlcNAcb1-4GlcNAcb-Sp13 [compound 53]	48.0 average rank (from RFU)	–
GlcNAcb1-2Mana1-6(GlcNAcb1-4(GlcNAcb1-2)Mana1-3)Manb1-4GlcNAcb1-4GlcNAc-Sp21 [compound 389]	85.5 average rank (from RFU)	–
GlcNAcb1-3Galb1-4GlcNAcb1-2Mana1-6(GlcNAcb1-3Galb1-4GlcNAcb1-2Mana1-3)Manb1-4GlcNAcb1-4(Fuca1-6)GlcNAcb-Sp24 [compound 575]	20.6 average rank (from RFU)	–
Mana1-2Mana1-6(Mana1-3)Mana1-6(Mana1-2Mana1-2Mana1-3)Manb1-4GlcNAcb1-4GlcNAcb-Sp12 [compound 212]	35.7 average rank (from RFU)	–
Mana1-6(Galb1-4GlcNAcb1-2Mana1-3)Manb1-4GlcNAcb1-4GlcNAcb-Sp12 [compound 352]	15.5 average rank (from RFU)	–
Mana1-6(Mana1-2Mana1-3)Mana1-6(Mana1-2Mana1-3)Manb1-4GlcNAcb1-4GlcNAcb-Sp12 [compound 211]	30.4 average rank (from RFU)	–
Mana1-6(Mana1-3)Mana1-6(Mana1-2Mana1-3)Manb1-4GlcNAcb1-4GlcNAcb-Sp12 [compound 216]	37.3 average rank (from RFU)	–
Mana1-6(Mana1-3)Mana1-6(Mana1-3)Manb1-4GlcNAcb1-4GlcNAcb-Sp12 [compound 217]	67.9 average rank (from RFU)	–
Mana1-6(Mana1-3)Manb1-4GlcNAcb1-4(Fuca1-6)GlcNAcb-Sp19 [compound 485]	62.5 average rank (from RFU)	–
Mana1-6(Mana1-3)Manb1-4GlcNAcb1-4GlcNAcb-Sp13 [compound 51]	87.6 average rank (from RFU)	–
asialofetuin (natural protein, glycoprotein (complex glycoprotein, asialo form as named)) IPLDPVAGYKEPACDDPDTEQAALAAVDYINKHLPRGYKHTLNQIDSVKVWPRRPTGEVYDIEIDTLETTCHVLDPTPLANCSVRQQTQHAVEGDCDIHVLKQDGQFSVLFTKCDSSPDSAEDVRKLCPDCPLLAPLNDSRVVHAVEVALATFNAESNGSYLQLVEISRAQFVPLPVSVSVEFAVAATDCIAKEVVDPTKCNLLAEKQYGFCKGSVIQKALGGEDVRVTCTLFQTQPVIPQPQPDGAEAEAPSAVPDAAGPTPSAAGPPVASVVVGPSVVAVPLPLHRAHYDLRHTFSGVASVESSSGEAFHVGKTPIVGQPSIPGGPVRLCPGRIRYFKI	–	stoichiometry N [2]: 0.32; Ka [3]: 116000 M⁻¹
